Target: T1, p300 (1-111) (Homo sapiens, UniProt Q09472)
T1 construct: 6xHis (C); HSV tag (C); expressed in transfected cells
Experiment: Pull-down of p300 deletion constructs on COMPOUND 2 coated beads, competition with excess COMPOUND 1
Assay type: binding
Conditions: p300 (1-111), (1-211), (1-351) in SW480 lysates, 150 μM COMPOUND 1
Procedure: FIG. 2. The first 111 amino acids of CBP, but not p300, specifically bind COMPOUND 1. • A. Schematic representation of the wild-type and deletion constructs for CBP. • B. CBP (1-111) contains the minimal binding domain of COMPOUND 1. Expression levels of CBP deletion constructs in SW480 cells are shown (upper panel). 10 μg of total protein was subjected to gel electrophoresis and subjected to immunoblotting using anti-His antibodies. Whole cell lysates of SW480 cells expressing CBP deletion constructs were bound to streptavidin-agarose beads coated with 100 μM of COMPOUND 2. The bound fractions were subjected to gel electrophoresis and immunoblotting using anti-His antibodies (lower panel). Arrows point to constructs which remained bound to COMPOUND 2 coated beads. • C. […] CBP deletion constructs, CBP(1-111),CBP (1-211), and CBP (1-351) and p300 deletion constructs, p300 (1-111), p300 (1-211), and p300 (1-351) were transfected into SW480 cells. Whole cell lysates were incubated with streptavidin-agarose beads or streptavidin-agarose beads coated with 100 μM COMPOUND 2 (lower panel). The binding of CBP constructs (1-111,1-211, and 1-351) and p300 constructs (1-111,1-211, and 1-351) to the beads was challenged with excess COMPOUND 1 (150 μM). • D. CBP (1-111) binds to COMPOUND 1 in a phosphorylation independent manner. […]

T1 sequence (Q09472 1-117): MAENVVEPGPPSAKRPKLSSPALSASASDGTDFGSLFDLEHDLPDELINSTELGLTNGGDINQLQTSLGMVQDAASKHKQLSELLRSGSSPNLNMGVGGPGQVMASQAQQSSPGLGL

In the case of `O=C1C(Cc2ccc(O)cc2)N2C(=O)CCN(C(=O)NCc3ccccc3)C2CN1Cc1cccc2ccccc12` (stereo not shown) [COMPOUND 1], the “Competition of p300 fragment binding to COMPOUND 2 beads by excess COMPOUND 1” value was “failed to have any effect”.

Source: patent US7531320B2, “Modulation of β-catenin/TCF-activated transcription” (priority 2003, dated 2009)
